Usually EC50 stands for the midpoint of the concentration-response curve. A higher EC50 goes with a need for much substance.

The target in test [1] is Glucagon-like peptide 1 receptor (Homo sapiens, UniProt P43220). As to the kind of experiment: Agonist activity at human GLP1R expressed in HEK293 cells after 5 hrs by luciferase reporter gene assay. Format: cell-based.
Test [2] deals with T1, Glucagon-like peptide 2 receptor (Homo sapiens, UniProt O95838).
T1 sequence (O95838 whole entry): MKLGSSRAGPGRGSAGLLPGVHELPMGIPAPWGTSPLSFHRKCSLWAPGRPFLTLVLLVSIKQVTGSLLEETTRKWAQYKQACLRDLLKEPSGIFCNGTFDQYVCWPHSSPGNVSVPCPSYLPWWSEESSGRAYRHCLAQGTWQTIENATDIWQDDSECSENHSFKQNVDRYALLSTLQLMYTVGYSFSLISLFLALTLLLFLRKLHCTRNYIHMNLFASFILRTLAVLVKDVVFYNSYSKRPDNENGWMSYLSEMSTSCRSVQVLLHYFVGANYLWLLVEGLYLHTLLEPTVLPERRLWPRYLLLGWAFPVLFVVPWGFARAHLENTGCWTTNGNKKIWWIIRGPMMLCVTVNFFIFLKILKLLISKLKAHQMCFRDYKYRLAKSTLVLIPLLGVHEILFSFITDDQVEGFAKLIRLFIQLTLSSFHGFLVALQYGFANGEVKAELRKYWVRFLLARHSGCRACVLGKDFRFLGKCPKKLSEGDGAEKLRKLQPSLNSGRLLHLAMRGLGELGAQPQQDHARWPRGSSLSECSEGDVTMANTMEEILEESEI
Put plainly: Agonist activity at human GLP2R expressed in HEK293 cells after 5 hrs by luciferase reporter gene assay. Format: cell-based.

Chain of Glucagon-like peptide 1 receptor (P43220 whole entry): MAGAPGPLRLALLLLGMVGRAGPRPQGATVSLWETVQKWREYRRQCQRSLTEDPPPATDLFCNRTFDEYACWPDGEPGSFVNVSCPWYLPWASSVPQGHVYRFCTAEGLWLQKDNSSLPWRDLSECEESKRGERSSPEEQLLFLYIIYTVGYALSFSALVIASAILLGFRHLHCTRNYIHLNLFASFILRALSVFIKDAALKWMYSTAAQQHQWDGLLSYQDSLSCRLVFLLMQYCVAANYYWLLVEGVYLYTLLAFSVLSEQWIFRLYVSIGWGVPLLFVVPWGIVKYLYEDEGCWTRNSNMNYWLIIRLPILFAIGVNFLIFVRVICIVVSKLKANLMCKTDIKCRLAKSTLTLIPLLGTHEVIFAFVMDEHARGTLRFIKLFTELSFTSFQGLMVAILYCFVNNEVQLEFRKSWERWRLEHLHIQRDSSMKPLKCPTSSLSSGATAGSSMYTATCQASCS

As to `CCCC[C@H](NC(=O)[C@H](CCC(=O)O)NC(=O)[C@H](CC(=O)O)NC(=O)[C@H](CO)NC(=O)[C@H](Cc1ccccc1)NC(=O)[C@H](CO)NC(=O)CNC(=O)[C@H](CC(=O)O)NC(=O)CNC(=O)[C@@H](N)Cc1cnc[nH]1)C(=O)N[C@@H](CC(N)=O)C(=O)N[C@H](C(=O)N[C@H](C(=O)N[C@@H](CC(C)C)C(=O)N[C@@H](CC(=O)O)C(=O)N[C@@H](CC1CCCCC1)C(=O)N[C@@H](CC(C)C)C(=O)N[C@@H](C)C(=O)N[C@@H](C)C(=O)N[C@@H](CCCNC(=N)N)C(=O)N[C@@H](CC(=O)O)C(=O)N[C@@H](Cc1ccccc1)C(=O)N[C@H](C(=O)N[C@@H](CC(N)=O)C(=O)N[C@@H](Cc1c[nH]c2ccccc12)C(=O)N[C@@H](CC(C)C)C(=O)N[C@H](C(=O)N[C@@H](CCC(N)=O)C(=O)N[C@H](C(=O)N[C@@H](CCCCN)C(N)=O)[C@@H](C)O)[C@@H](C)CC)[C@@H](C)CC)[C@@H](C)CC)[C@@H](C)O`, the 50% effective concentration (EC50) in test [1] was above 1000 nM; in test [2], 0.1 nM.

For `CCCC[C@H](NC(=O)[C@H](CCC(=O)O)NC(=O)[C@H](CC(=O)O)NC(=O)[C@H](CO)NC(=O)[C@H](Cc1ccccc1)NC(=O)[C@H](CO)NC(=O)CNC(=O)[C@H](CC(=O)O)NC(=O)CNC(=O)[C@@H](N)Cc1cnc[nH]1)C(=O)N[C@H](Cc1cccs1)C(=O)N[C@H](C(=O)N[C@H](C(=O)N[C@@H](CC(C)C)C(=O)N[C@@H](CC(=O)O)C(=O)N[C@@H](Cc1ccccc1)C(=O)N[C@@H](CC(C)C)C(=O)N[C@@H](C)C(=O)N[C@@H](C)C(=O)N[C@@H](CCCNC(=N)N)C(=O)N[C@@H](CC(=O)O)C(=O)N[C@@H](Cc1ccccc1)C(=O)N[C@H](C(=O)N[C@@H](CC(N)=O)C(=O)N[C@@H](Cc1c[nH]c2ccccc12)C(=O)N[C@@H](CC(C)C)C(=O)N[C@H](C(=O)N[C@@H](CCC(N)=O)C(=O)N[C@H](C(=O)N[C@@H](CCCCN)C(N)=O)[C@@H](C)O)[C@@H](C)CC)[C@@H](C)CC)[C@@H](C)CC)[C@@H](C)O`, the results for the half-maximal effective concentration (EC50) in test [1] and in test [2] were above 1000 nM and 0.08 nM, respectively.

`CCCC[C@H](NC(=O)[C@H](CCC(=O)O)NC(=O)[C@H](CC(=O)O)NC(=O)[C@H](CO)NC(=O)[C@H](Cc1ccccc1)NC(=O)[C@H](CO)NC(=O)CNC(=O)[C@H](CC(=O)O)NC(=O)CNC(=O)[C@@H](N)Cc1cnc[nH]1)C(=O)N[C@H](CC(C)C)C(=O)N[C@H](C(=O)N[C@H](C(=O)N[C@@H](CC(C)C)C(=O)N[C@@H](CC(=O)O)C(=O)N[C@@H](CC(N)=O)C(=O)N[C@@H](CC(C)C)C(=O)N[C@@H](C)C(=O)N[C@@H](C)C(=O)N[C@@H](CCCNC(=N)N)C(=O)N[C@@H](CC(=O)O)C(=O)N[C@@H](Cc1ccccc1)C(=O)N[C@H](C(=O)N[C@@H](CC(N)=O)C(=O)N[C@@H](Cc1c[nH]c2ccccc12)C(=O)N[C@@H](CC(C)C)C(=O)N[C@H](C(=O)N[C@@H](CCC(N)=O)C(=O)N[C@H](C(=O)N[C@@H](CCCCN)C(N)=O)[C@@H](C)O)[C@@H](C)CC)[C@@H](C)CC)[C@@H](C)CC)[C@@H](C)O`: the figures for the EC50 in test [1] and in test [2] were above 1000 nM and 0.31 nM, respectively.

For `CCCC[C@H](NC(=O)[C@H](CCC(=O)O)NC(=O)[C@H](CC(=O)O)NC(=O)[C@H](CO)NC(=O)[C@H](Cc1ccccc1)NC(=O)[C@H](CO)NC(=O)CNC(=O)[C@H](CC(=O)O)NC(=O)CNC(=O)[C@@H](N)Cc1c[nH]cn1)C(=O)N[C@@H](CC(N)=O)C(=O)N[C@H](C(=O)N[C@H](C(=O)N[C@@H](CC(C)C)C(=O)N[C@@H](CC(=O)O)C(=O)N[C@@H](Cc1ccc2ccccc2c1)C(=O)N[C@@H](CC(C)C)C(=O)N[C@@H](C)C(=O)N[C@@H](C)C(=O)N[C@@H](CCCNC(=N)N)C(=O)N[C@@H](CC(=O)O)C(=O)N[C@@H](Cc1ccccc1)C(=O)N[C@H](C(=O)N[C@@H](CC(N)=O)C(=O)N[C@@H](Cc1c[nH]c2ccccc12)C(=O)N[C@@H](CC(C)C)C(=O)N[C@H](C(=O)N[C@@H](CCC(N)=O)C(=O)N[C@H](C(=O)N[C@@H](CCCCN)C(N)=O)[C@@H](C)O)[C@@H](C)CC)[C@@H](C)CC)[C@@H](C)CC)[C@@H](C)O`, the EC50 in test [1] was above 1000 nM; in test [2], 0.13 nM.

Take `CCCC[C@H](NC(=O)[C@H](CCC(=O)O)NC(=O)[C@H](CC(=O)O)NC(=O)[C@H](CO)NC(=O)[C@H](Cc1ccccc1)NC(=O)[C@H](CO)NC(=O)CNC(=O)[C@H](CC(=O)O)NC(=O)CNC(=O)[C@@H](N)Cc1cnc[nH]1)C(=O)N[C@H](Cc1ccccc1)C(=O)N[C@H](C(=O)N[C@H](C(=O)N[C@@H](CC(C)C)C(=O)N[C@@H](CC(=O)O)C(=O)N[C@@H](CC(C)C)C(=O)N[C@@H](CC(C)C)C(=O)N[C@@H](C)C(=O)N[C@@H](C)C(=O)N[C@@H](CCCNC(=N)N)C(=O)N[C@@H](CC(=O)O)C(=O)N[C@@H](Cc1ccccc1)C(=O)N[C@H](C(=O)N[C@@H](CC(N)=O)C(=O)N[C@@H](Cc1c[nH]c2ccccc12)C(=O)N[C@@H](CC(C)C)C(=O)N[C@H](C(=O)N[C@@H](CCC(N)=O)C(=O)N[C@H](C(=O)N[C@@H](CCCCN)C(=O)N[C@H](C(=O)N[C@H](C(=O)N[C@@H](CC(=O)O)C(=O)NCC)[C@@H](C)O)[C@@H](C)CC)[C@@H](C)O)[C@@H](C)CC)[C@@H](C)CC)[C@@H](C)CC)[C@@H](C)O`: the EC50 in test [1] was above 1000 nM; in test [2], 0.05 nM.

With `CCCC[C@H](NC(=O)[C@H](CCC(=O)O)NC(=O)[C@H](CC(=O)O)NC(=O)[C@H](CO)NC(=O)[C@H](Cc1ccccc1)NC(=O)[C@H](CO)NC(=O)CNC(=O)[C@H](CC(=O)O)NC(=O)CNC(=O)[C@@H](N)Cc1cnc[nH]1)C(=O)N[C@H](Cc1ccccc1)C(=O)N[C@H](C(=O)N[C@H](C(=O)N[C@@H](CC(C)C)C(=O)N[C@@H](CC(=O)O)C(=O)N[C@@H](CC(C)C)C(=O)N[C@@H](CC(C)C)C(=O)N[C@@H](C)C(=O)N[C@@H](C)C(=O)N[C@@H](CCCNC(=N)N)C(=O)N[C@@H](CC(=O)O)C(=O)N[C@@H](Cc1ccccc1)C(=O)N[C@H](C(=O)N[C@@H](CC(N)=O)C(=O)N[C@@H](Cc1c[nH]c2ccccc12)C(=O)N[C@@H](CC(C)C)C(=O)N[C@H](C(=O)N[C@@H](CCC(N)=O)C(=O)N[C@H](C(=O)N[C@@H](CCCCN)C(=O)N[C@H](C(=O)N[C@H](C(=O)N[C@@H](CC(=O)O)C(=O)NCCOCCOCCOCCOCCC(N)=O)[C@@H](C)O)[C@@H](C)CC)[C@@H](C)O)[C@@H](C)CC)[C@@H](C)CC)[C@@H](C)CC)[C@@H](C)O`, the EC50 is above 1000 nM in test [1] and 0.03 nM in test [2].

For the compound `CCCC[C@H](NC(=O)[C@H](CCC(=O)O)NC(=O)[C@H](CC(=O)O)NC(=O)[C@H](CO)NC(=O)[C@H](Cc1ccccc1)NC(=O)[C@H](CO)NC(=O)CNC(=O)[C@H](CC(=O)O)NC(=O)CNC(=O)[C@@H](N)Cc1cnc[nH]1)C(=O)N[C@@H](CC(N)=O)C(=O)N[C@H](C(=O)N[C@H](C(=O)N[C@@H](CC(C)C)C(=O)N[C@@H](CC(=O)O)C(=O)N[C@@H](Cc1ccc(-c2ccccc2)cc1)C(=O)N[C@@H](CC(C)C)C(=O)N[C@@H](C)C(=O)N[C@@H](C)C(=O)N[C@@H](CCCNC(=N)N)C(=O)N[C@@H](CC(=O)O)C(=O)N[C@@H](Cc1ccccc1)C(=O)N[C@H](C(=O)N[C@@H](CC(N)=O)C(=O)N[C@@H](Cc1c[nH]c2ccccc12)C(=O)N[C@@H](CC(C)C)C(=O)N[C@H](C(=O)N[C@@H](CCC(N)=O)C(=O)N[C@H](C(=O)N[C@@H](CCCCN)C(N)=O)[C@@H](C)O)[C@@H](C)CC)[C@@H](C)CC)[C@@H](C)CC)[C@@H](C)O`, the EC50 in test [1] is above 1000 nM; in test [2], 0.35 nM.

These data come from ChEMBL document CHEMBL3822442, “Synthesis and Pharmacological Characterization of Novel Glucagon-like Peptide-2 (GLP-2) Analogues with Low Systemic Clearance” (J Med Chem, 2016).
